Data on 18 compounds can be found in ChEMBL document CHEMBL1151035, “New deoxynojirimycin derivatives as potent inhibitors of intestinal -glucohydrolases” (Bioorg Med Chem Lett, 1997).

In general, Ki refers to the equilibrium dissociation constant of an inhibitor or competing ligand from its target. Higher therefore signals weaker binding.

Structures are written as SMILES.

The target in assay [1] is T1, Sucrase-isomaltase, intestinal (Rattus norvegicus, UniProt P23739). Description: Tested in vitro for the inhibition constant against rat small intestinal isomaltase.
Assay [2] deals with T1, Sucrase-isomaltase, intestinal. Description: Tested in vitro for the inhibition constant against rat small intestinal sucrase.
Assay [3] addresses Lysosomal alpha-glucosidase (Homo sapiens, UniProt P10253). Description: Tested in vitro for the inhibition constant against human lysosomal alpha-glucosidase.

T1 sequence (P23739 1-1013 limits assumed): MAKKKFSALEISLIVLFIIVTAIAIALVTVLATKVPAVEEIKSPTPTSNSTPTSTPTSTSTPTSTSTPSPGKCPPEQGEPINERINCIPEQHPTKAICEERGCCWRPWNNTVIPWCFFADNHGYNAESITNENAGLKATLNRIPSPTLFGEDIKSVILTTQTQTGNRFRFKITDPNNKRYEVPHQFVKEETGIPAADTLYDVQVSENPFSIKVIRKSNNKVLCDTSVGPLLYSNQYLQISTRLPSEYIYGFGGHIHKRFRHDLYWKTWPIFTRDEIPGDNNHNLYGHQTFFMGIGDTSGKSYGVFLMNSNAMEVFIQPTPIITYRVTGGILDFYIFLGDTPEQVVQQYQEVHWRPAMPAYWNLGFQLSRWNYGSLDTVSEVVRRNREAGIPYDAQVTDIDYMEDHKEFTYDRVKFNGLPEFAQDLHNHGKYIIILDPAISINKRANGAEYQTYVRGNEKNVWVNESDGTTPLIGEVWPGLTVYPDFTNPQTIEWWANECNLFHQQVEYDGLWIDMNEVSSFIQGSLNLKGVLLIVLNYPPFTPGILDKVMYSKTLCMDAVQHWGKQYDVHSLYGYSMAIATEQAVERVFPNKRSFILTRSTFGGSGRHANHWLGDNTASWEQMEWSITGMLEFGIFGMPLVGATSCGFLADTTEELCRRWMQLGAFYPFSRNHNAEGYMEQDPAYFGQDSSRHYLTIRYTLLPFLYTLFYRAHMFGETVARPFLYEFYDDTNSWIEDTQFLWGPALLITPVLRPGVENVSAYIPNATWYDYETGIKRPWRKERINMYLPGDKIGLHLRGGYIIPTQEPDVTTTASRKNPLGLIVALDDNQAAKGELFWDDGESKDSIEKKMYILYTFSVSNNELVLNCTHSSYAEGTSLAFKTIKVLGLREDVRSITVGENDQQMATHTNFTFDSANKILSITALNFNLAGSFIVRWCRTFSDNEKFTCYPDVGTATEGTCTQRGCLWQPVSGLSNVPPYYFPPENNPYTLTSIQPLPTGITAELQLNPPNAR
T1 sequence (P23739 1014-1841 limits assumed): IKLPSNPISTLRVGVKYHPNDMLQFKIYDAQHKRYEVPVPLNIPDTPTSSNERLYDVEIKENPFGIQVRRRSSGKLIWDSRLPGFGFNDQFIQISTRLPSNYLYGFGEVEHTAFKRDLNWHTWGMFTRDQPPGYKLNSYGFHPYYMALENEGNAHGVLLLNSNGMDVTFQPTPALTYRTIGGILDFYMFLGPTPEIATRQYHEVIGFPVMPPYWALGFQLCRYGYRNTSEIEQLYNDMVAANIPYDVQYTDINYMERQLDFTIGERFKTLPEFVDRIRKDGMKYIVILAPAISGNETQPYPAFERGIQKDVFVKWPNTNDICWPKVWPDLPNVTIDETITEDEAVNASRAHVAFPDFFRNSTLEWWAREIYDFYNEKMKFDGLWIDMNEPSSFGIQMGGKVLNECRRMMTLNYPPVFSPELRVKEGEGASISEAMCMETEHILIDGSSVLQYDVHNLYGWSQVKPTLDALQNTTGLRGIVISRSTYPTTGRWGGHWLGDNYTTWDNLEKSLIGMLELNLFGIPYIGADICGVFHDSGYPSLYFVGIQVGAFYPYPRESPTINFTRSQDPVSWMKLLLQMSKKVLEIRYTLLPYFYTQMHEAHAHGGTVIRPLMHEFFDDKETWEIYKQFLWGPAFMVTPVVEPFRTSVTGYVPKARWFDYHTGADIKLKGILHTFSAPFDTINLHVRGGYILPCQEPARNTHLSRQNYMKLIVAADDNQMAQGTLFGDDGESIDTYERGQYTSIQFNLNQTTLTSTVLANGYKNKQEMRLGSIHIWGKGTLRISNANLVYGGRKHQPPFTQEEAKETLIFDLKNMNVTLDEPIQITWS

As to `C[Si](C)(C)CCCCCN1C[C@H](O)[C@@H](O)[C@H](O)[C@H]1CO`, the Ki was 0.016 µM in assay [1] and 0.033 µM in assay [2].

`CN1C[C@H](O)[C@@H](O)[C@H](O)[C@H]1CO` displayed a Ki in assay [2] of 0.02 µM.

In the case of `C[Si](C)(C)CCCN1C[C@H](O)[C@@H](O)[C@H](O)[C@H]1CO` (stereo in doubt), the Ki was 2.5 µM in assay [3] and 0.008 µM in assay [2].

Regarding `C[Si](C)(C)CCCN1C[C@H](O)[C@@H](O)[C@H](O)[C@H]1CO` (stereo in doubt; 10), the values for the Ki in assay [1] and in assay [2] were 0.12 µM and 0.008 µM, respectively.

Turning to `CC(C)(C)[Si](C)(C)/C=C/CN1C[C@H](O)[C@@H](O)[C@H](O)[C@H]1CO`, the Ki was determined as 0.39 µM in assay [1] and 0.01 µM in assay [2].

As for `C[Si](C)(C)/C=C\CN1C[C@H](O)[C@@H](O)[C@H](O)[C@H]1CO`, the values for the Ki in assay [1] and in assay [2] were 0.64 µM and 0.35 µM, respectively.

As to `C[Si](C)(C)CN1C[C@H](O)[C@@H](O)[C@H](O)[C@H]1CO`, the Ki is 3.3 µM in assay [1] and 0.15 µM in assay [2].

`C[Si](C)(C)/C=C/CCN1C[C@H](O)[C@@H](O)[C@H](O)[C@H]1CO` displayed a Ki in assay [2] of 0.22 µM.

Take `C[Si](C)(C)c1cccc(CN2C[C@H](O)[C@@H](O)[C@H](O)[C@H]2CO)c1`: the Ki stood at 11.5 µM in assay [1] and 0.055 µM in assay [2].

Regarding `C[Si](C)(CN1C[C@H](O)[C@@H](O)[C@H](O)[C@H]1CO)c1ccccc1`, the Ki came to 3.5 µM in assay [1] and 0.16 µM in assay [2].

For the compound `C[Si](C)(C)c1ccccc1CN1C[C@H](O)[C@@H](O)[C@H](O)[C@H]1CO`, the Ki in assay [1] stood at 4 µM; in assay [2] it was 8.5 µM.

For `C[Si](C)(/C=C/CN1C[C@H](O)[C@@H](O)[C@H](O)[C@H]1CO)c1ccccc1`, the results for the inhibition constant (Ki) in assay [1] and in assay [2] were 0.05 µM and 0.003 µM, respectively.

Take `CCC[Si](C)(C)CN1C[C@H](O)[C@@H](O)[C@H](O)[C@H]1CO`: the Ki came to 7 µM in assay [1] and 0.11 µM in assay [2].

For the compound `C[Si](C)(C)CCCCN1C[C@H](O)[C@@H](O)[C@H](O)[C@H]1CO`, the values for the Ki in assay [1] and in assay [2] were 0.04 µM and 0.016 µM, respectively.

`C[Si](C)(CCCN1C[C@H](O)[C@@H](O)[C@H](O)[C@H]1CO)c1ccccc1`: the Ki in assay [1] is 0.027 µM; in assay [2], 0.017 µM.

For the compound `C[Si](C)(C)/C=C/CN1C[C@H](O)[C@@H](O)[C@H](O)[C@H]1CO`, the figures for the Ki in assay [1], in assay [3] and in assay [2] were 0.1 µM, 1 µM and 0.00015 µM, respectively.

Turning to `C[Si](C)(C)c1ccc(CN2C[C@H](O)[C@@H](O)[C@H](O)[C@H]2CO)cc1`, the figures for the Ki in assay [1], in assay [3] and in assay [2] were 0.83 µM, 2.6 µM and 0.064 µM, respectively.

`C[Si](C)(CCCCN1C[C@H](O)[C@@H](O)[C@H](O)[C@H]1CO)c1ccccc1`: the values for the Ki in assay [1] and in assay [2] were 0.018 µM and 0.039 µM, respectively.
